From patent US20230250077A1, “SULFONYLBENZAMIDE DERIVATIVE AND CONJUGATE THEREOF, PREPARATION METHOD THEREFOR AND USE THEREOF” (Jiangsu Hengrui Pharmaceuticals Co., Ltd., priority 2020, published 2023) come the findings set out here.

Series [1] concerns the target T1, BCL-2 (Homo sapiens, UniProt P10415).
T1 construct: purchased R&D systems 827-BC-050
Put plainly: Binding activity for BCL-2 (HTRF, biotin-labeled BIM). The note with it: His-tagged BCL-2, biotin-labeled BIM. Here is the method: In vitro BCL-2-binding activity was tested by the following method.
Reagents used in this experiment: His-tagged BCL-2 protein (R&D systems, Cat #827-BC-050); biotin-labeled BIM protein (R&D, Cat #3526/1); binding buffer (cisbio, Cat #62DLBDDF); assay buffer (cisbio, Cat #62DB1FDG); MAb anti-6His-Eu cryptate (cisbio, Cat #61HI2KLA); and affinity streptomycin linked XL665 (cisbio, Cat #611SAXLA).
The in vitro binding assay described below can determine the binding activity of test compounds for BCL-2.
The test compounds were dissolved in dimethyl sulfoxide and diluted to gradient concentrations as required for the experiment, and the compounds at various concentrations formulated in dimethyl sulfoxide were subjected to a 100-fold dilution with a binding buffer. BCL-2 was diluted to the corresponding concentration with a binding buffer solution, and added to a white 384-well plate at 4 μL/well. Then the diluted test compound was added into the white 384-well plate at 2 μL/well. The plate was incubated at 25° C. for 1 h after the mixture was uniformly mixed. Biotin-labeled BIM protein was diluted to the corresponding concentration with a binding buffer, and added to a white 384-well plate at 4 μL/well. The plate was incubated at 25° C. for 2 h after the mixture was uniformly mixed. The MAb anti-6His-Eu cryptate and the affinity streptomycin linked XL665 were each diluted to the corresponding concentration with an assay buffer, and added to a white 384-well plate at 5 μL/well. The plate was incubated at 25° C. for 2-4 h after the mixture was uniformly mixed. The signal values were read with the HTRF program in a microplate reader (BMG Labtech, model: PHERAstar FS).

For series [2], the system named is SD rats. Put plainly: Toxicity test on SD rats by repeated intravenous administrations for 7 days. In kind it is in vivo, rat. The note with it: 1 mg/kg intravenously qd. The method, then: This experiment was performed to evaluate the toxicity of compound 9 and AZD4320 to SD rats by repeated intravenous administrations for 7 days.
30 SD rats, weighing about 180-200 g and aged 6-7 weeks, half male and half female, purchased from Zhejiang Vital River Laboratory Animal Technology Co., Ltd., SPF grade. Animal certification number: 200917Aazz0619000298 and 20200917Aazz0619000104. Production license number: SCXK (Zhejiang) 2019-0001.
Housing conditions: SPF grade, animals were housed in plastic and transparent rat cages, 2-3 per cage. The room temperature was 20-26° C. and the relative humidity was 40%-70%. The illumination was controlled in a 12/12 light/dark cycle. The granulated feed for mice was freely taken in an unlimited amount.
The rats were randomly divided into the following 3 groups: a vehicle control group, a compound 9-1 mg/kg group and a compound AZD4320-1 mg/kg group, with 6 rats in each group, half male and half female.
Dosage of the test sample for the 7-day toxicity test in rats: 1 mg/kg (qd), for 7 consecutive days. Administration route: intravenously, dosing volume: 10 mL/kg, dosing frequency and dosing period: daily in the morning for 7 days.
Vehicle: 1.5% DMA+98.5% (10% HS-15), wherein DMA is N,N-dimethylacetamide (Shanghai Titan Scientific Co., Ltd., Cat #01013630); and HS-15 is polyethylene glycol stearate 15 (Solutol HS15) (Shanghai Xietai Chemical Co., Ltd., Cat #50253404).
Hitachi 7100 automatic biochemical analyzer
Siemens advia 2120i automatic blood cell analyzer
Sysmex ca1500 automatic coagulation analyzer
The detection results were input and statistically processed by Excel of the computer.
Clinical symptoms, food intake and general visual observation results of dissection were not statistically calculated, and indexes such as body weight, organ weight and clinical examination were counted by using T-test.
SD rats were intravenously administered with 1 mg/kg compound 9 or 1 mg/kg AZD4320 at 5 mL/kg for 7 repeated days.

Series [3] in a line: Pharmacokinetic evaluation in mice (iv, LC/MS/MS plasma). Type of series: in vivo. The note with it: intravenous administration. The method, then: The drug concentration in the plasma of the test animals (mice) at different time points after intravenous (iv) administration of compound 10 and AZD4320 was determined by an LC/MS/MS method. The pharmacokinetic behavior of the compounds of the present disclosure in mice was studied and their pharmacokinetic profile was valuated.
18 C57 mice, female, randomly divided into 2 groups, purchased from Zhejiang Vital River Laboratory Animal Technology Co., Ltd, animal production license number: SCXK (Shanghai) 2017-0005.
A certain amount of compound 10 was weighed, dissolved by adding 5% by volume of DMSO and 5% Tween 80 (Shanghai Titan Scientific Co., Ltd.), and then prepared into a 0.1 mg/mL clear solution by adding 90% normal saline. Compound AZD4320 was formulated as with compound 10. […]
The mice were intravenously administered with compound 10, and 0.1 mL of blood was collected before the administration and 5 min, 0.25 h, 0.5 h, 1.0 h, 2.0 h, 4.0 h, 8.0 h, 11.0 h and 24.0 h after the administration, put into an EDTA-K2 anticoagulation tube, centrifuged at 10,000 rpm for 1 min (4° C.). Plasma was separated within 1 hour, and stored at −20° C. for testing. The process from blood collection to centrifugation was performed under an ice bath.
The mice were intravenously administered with compound AZD4320, and 0.1 mL of blood was collected before the administration and 5 min, 0.25 h, 0.5 h, 1.0 h, 2.0 h, 4.0 h, 8.0 h, 11.0 h and 24.0 h after the administration, put into an EDTA-K2 anticoagulation tube, centrifuged at 10,000 rpm for 1 min (4° C.). Plasma was separated within 1 hour, and stored at −20° C. for testing. The process from blood collection to centrifugation was performed under an ice bath.
The content of the test compounds at different concentrations in plasma of mice after the administration was determined: 10 μL of plasma of mice at each time point after the administration was mixed with 200 μL of methanol (containing an internal standard solution camptothecin (100 ng/mL)); the mixture was vortexed for 1 min, and centrifuged for 10 min (18,000 r/min), and 3 μL of supernatant was taken for LC/MS/MS analysis.

SMILES strings stand for the structures. “Also recorded” adds a separate entry of the source. Marks after values point to notes of the source that are not given here.

T1 sequence (P10415 whole entry): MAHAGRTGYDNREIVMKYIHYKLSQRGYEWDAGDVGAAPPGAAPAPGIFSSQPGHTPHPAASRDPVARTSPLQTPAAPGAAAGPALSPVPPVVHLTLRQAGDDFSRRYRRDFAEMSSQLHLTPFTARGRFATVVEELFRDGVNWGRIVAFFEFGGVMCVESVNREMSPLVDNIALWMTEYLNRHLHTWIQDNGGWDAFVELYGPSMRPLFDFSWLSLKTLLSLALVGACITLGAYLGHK

In series [1], `O=C(NS(=O)(=O)c1ccc(N[C@@H](CSc2ccccc2)C[C@@H]2CCCN2CCO)c(S(=O)(=O)C(F)(F)F)c1)c1ccc(N2CCC([C@@H](O)c3ccccc3-c3ccc(Cl)cc3)CC2)cc1` [Example 2-9, 4-(4-((R)-(4′-chloro-[1,1′-biphenyl]-2-yl)(hydroxy)methyl)piperidin-1-yl)-N-((4-(((R)-1-((S)-1-(2-hydroxyethyl)pyrrolidin-2-yl)-3-(phenylthio)propan-2-yl)amino)-3-((trifluoromethyl)sulfonyl)phenyl)sulfonyl)benzamide] had a Ki of 0.02 nM. Further, in series [2], the “Clinical observation of the animals during treatment” value was “No significant abnormalities” and the “PLT (10^9/L)” value is listed as 1,258.67* 10^9/L. In addition, the “Effect on platelets (in words)” value in series [2] (vs vehicle control, listed as compound 9, 1 mg/kg) is given as “slightly reduced but within the background normal range; also recorded: reduces platelets less than the positive control group”.

`CN(CCO)CC[C@H](CSc1ccccc1)Nc1ccc(S(=O)(=O)NC(=O)c2ccc(N3CCC([C@@H](O)c4ccccc4-c4ccc(C(F)(F)F)cc4)CC3)cc2)cc1S(=O)(=O)C(F)(F)F` [Example 2-10, 4-(4-((R)-hydroxy(4′-(trifluoromethyl)-[1,1′-biphenyl]-2-yl)methyl)piperidin-1-yl)-N-((4-(((R)-4-((2-hydroxyethyl)(methyl)amino)-1-(phenylthio)butan-2-yl)amino)-3-((trifluoromethyl)sulfonyl)phenyl)sulfonyl)benzamide] showed a Ki in series [1] of 0.03 nM. Further, the “Clearance CLz/F” value in series [3] (C57 mice, female, dose 1 mg/kg (table)) is 50.3 mL/min/kg. Moreover, in series [3] (mice), the “Clearance in mice (in words)” value was “cleared slowly” and the “Elimination phase half-life compared with the positive control AZD 4320 (in words)” value is on record as “longer elimination phase half-life than the positive control AZD 4320”. The AUC(0-t) in series [3] (mouse, plasma, C57 mice, female, dose 1 mg/kg (table), read-out: Area under curve AUC0-t) stood at 296 ng·h/mL. Besides, the half-life in series [3] (mouse, plasma, C57 mice, female, dose 1 mg/kg (table), read-out: Half-life T½ (converted)) was 780 min. Also, in series [3] (mouse, plasma, C57 mice, female, dose 1 mg/kg (table), read-out: Mean retention time MRT 0-∞), the MRT inf was 7.3 h. The concentration at 5 min in series [3] (mouse, plasma, C57 mice, female, dose 1 mg/kg (table), read-out: Plasma Concentration C5 min) came out at 608 ng/mL.
